Measured values: patent publication US11452291B2, “Induction of a physiological dispersion response in bacterial cells in a biofilm” (The Research Foundation for The State University of New York, priority 2007, dated 2022)

Key:
P. aeruginosa biofilms = test: Microtiter plate dispersion bioassay; format: cell-based, Pseudomonas aeruginosa PAO1
Description: Microtiter plate dispersion bioassays were used to test various preparations for their ability to exogenously induce biofilm dispersion. Biofilms were grown on the inside surface of microtiter plate wells using a semi-batch culture method in which the medium within each well was replaced periodically to reduce the accumulation of native dispersion inducing factors. Biofilms grown in this manner were treated with dispersion inducer or sterile medium to release cells into the bulk liquid and evaluate dispersed cell number by measuring optical density. Briefly, sterile polystyrene 96 well plates were etched with acetone for 10 seconds to create a rough surface for the attachment of microbial cells. After drying for 24 hours, plates were inoculated with 150 μL/well of overnight culture containing the test organism, previously diluted 1:20 in growth medium and incubated at 30° C. with shaking at 200 rpm. Medium in the wells was replaced every 24 hours for 5 days and every 12 hours on day 6 and day 7. Medium was then replaced after 7 hours. Dispersion induction was tested by adding 150 μL growth medium containing dispersion inducer for 1 hr at 30° C. or sterile medium as a control. Medium containing dispersed cells was then transferred by pipet to a non-etched microtiter plate and the optical density (OD570) was determined (ELx808 Absorbance Microplate Reader; BioTek Instruments, Inc., Winooski, Vt.). […] Note: Microtiter plate dispersion bioassays were not suitable for determining absolute magnitude of an induced dispersion response because in a semi-batch system, control and test samples are susceptible to natural dispersion against which the activity of exogenous induction is measured. All efficiency studies were performed using biofilm tube reactor or flow-cell continuous culture systems and were based on both total cell counts and viable cell counts.

[1] = test system: P. aeruginosa biofilm microcolonies; test: Microscopic analysis of mature biofilm in flow cell; format: cell-based, Pseudomonas aeruginosa
Description: A continuous-culture once-through flow cell was configured to observe the growth and development of biofilms attached to a glass substratum. The flow cell was constructed of aluminum containing a chamber 1.0 mm by 1.4 cm by 4.0 cm capped with a glass cover slip. Sterile modified EPRI medium was pumped from a 10-liter vessel through silicone tubing to the flow cell using a Masterflex 8-roller-head peristaltic pump at a flow rate of 0.13 mL/min. Flow through the chamber was laminar, with a Reynolds number of 0.17, having a fluid residence time of 4.3 min. Medium leaving the flow cell was discharged to an effluent reservoir via silicone tubing. The entire system was closed to the outside environment but maintained in equilibrium with atmospheric pressure by a 0.2-μm-pore-size gas-permeable filter fitted to each vessel. […] Each cell cluster was measured to determine its height by focusing from the substratum through to the apex of the cluster, and its width by measurement at the base of the cell cluster using a stage micrometer. Cell clusters were defined as cells embedded within an exopolysaccharide matrix attached to the substratum and lacking motility; void areas within cell clusters were determined by the observation of free-swimming bacteria within a space inside a cell cluster. […]

[2] = test system: biofilm cells of Staphylococcus aureus; settings: cited from earlier work

CCCCCCC/C=C\C(=O)O [cis-2-decenoic acid]
dispersion activity compared to un-concentrated spent culture medium (P. aeruginosa biofilms; 1.0 nanomolar): greater dispersion activity at 1.0 nanomolar than un-concentrated spent culture medium
time at which microcolony disaggregation begins ([1]; 10 μM added to mature biofilm in flow cell): 11 min
effect on biofilm microcolony by microscopy ([1]; FIG. 13): completely disrupting a biofilm microcolony

CCCCCCC/C=C/C(=O)O [trans-2-decenoic acid]
concentration range with dispersion activity (P. aeruginosa biofilms; biofilm cultures grown in microtiter plates): activity only at millimolar concentrations

CC(C)CCCCCCC/C=C\C(=O)O [DSF, reference compound]
promotion of dispersion of P. aeruginosa (P. aeruginosa biofilms): shown not to promote dispersion

OCl [chlorine, sodium hypochlorite]
increase in concentration required to kill biofilm cells compared to planktonic cells [2]: 600 fold
